Assay results from ChEMBL document CHEMBL1201862, “PubChem BioAssay data set” (2004).
Active and inactive are the calls of the source.

Tests used:
[1] = viability loss in A549 lung cancer cells – cell-based, cherry-picks, […], cytotoxicity control, dose response (AID 1053119); assay type: functional
cells [2] = assay type: functional, cell-based
[3] = biological target: T1, Trace amine-associated receptor 1 (Homo sapiens, UniProt Q96RJ0); assay: Fluorescence-based cell-based high throughput dose response assay to identify agonists of the human trace amine associated receptor 1 (TAAR1).; assay type: functional
[4] = biological target: T1, Trace amine-associated receptor 1; assay: Counterscreen for agonists of the human trace amine associated receptor 1 (hTAAR1): Fluorescence-based cell-based high throughput dose response assay to identify hTAAR1 agonist that also desensitize TAAR1 receptor response.; assay type: functional
cells [5] = assay type: functional, cell-based; remark: listed apart in the source
Albumin = Albumin (Bos taurus, UniProt P02769); assay: Counterscreen for inhibitors of T-cell receptor (TCR)-CD3 interaction: Fluorescence-based biochemical high throughput dose response assay to identify inhibitors of T-cell receptor (TCR)-CD3 interaction using a TAMRA-labeled BSA probe.; assay type: functional
[6] = potency of ADAM10 substrate cleavage blockers – biochemical, QFRET, dose response (AID 743254);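 note: ADAM10 enzyme with the DM2 quenched FRET peptide as substrate; EDANS fluorescence gain as the protease cuts the substrate; inhibitor potency against ADAM10 proteolytic activity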
[7] = biological target: Disintegrin and metalloproteinase domain-containing protein 17 (Homo sapiens, UniProt P78536); assay: inhibition of ADAM17 substrate cleavage – biochemical, quenched FRET substrate, counter-screen for ADAM10 exosite inhibitor project, dose response (AID 743253)
[8] = viability loss in HepG2 liver cells – cell-based, ATP luminescence, cherry-pick, set 6, cytotoxicity control, dose response (AID 1053125); assay type: functional
cells [9] = settings: HEK293
Vero = assay: viability loss in Vero cells – cell-based, plate reader, cherry-pick samples, cytotoxicity control, dose response (AID 687020); assay type: functional; settings: Chlorocebus sabaeus
BHK-21 = assay: viability loss in BHK-21 cells – cell-based, plate reader, cherry-pick samples, cytotoxicity control, dose response (AID 687030); assay type: functional; settings: Mesocricetus auratus
A549 = assay: viability loss in A549 cells – cell-based, plate reader, cherry-pick samples, cytotoxicity control, dose response (AID 687028); assay type: functional; settings: Homo sapiens
[10] = biological target: Metabotropic glutamate receptor 3 (Rattus norvegicus, UniProt P31422); assay: inhibition of rat mGlu3 glutamate signaling – HEK/GIRK cells, thallium flux, dose response (AID 651839); assay type: functional
[11] = inhibitors of non-replicating M. tuberculosis, dose response, luciferase, dry powder (AID 651619); assay type: functional; settings: Mycobacterium tuberculosis
[12] = inhibitors of non-replicating M. tuberculosis, dose response, luciferase, dry powder (AID 651620); assay type: functional; settings: Mycobacterium tuberculosis
[13] = growth inhibition of replicating M. tuberculosis, dose response, counter-screen, dry powder, IC90 (AID 651617); assay type: functional; settings: Mycobacterium tuberculosis
[14] = cervical cancer cell viability loss – HeLa, 24 h, plate reader, powder samples, set 3, cytotoxicity control, dose response (AID 651864); assay type: functional, cell-based
[15] = cytotoxicity in MITF-independent A375 cells – cell-based, CellTiter-Glo luminescence, dry powder, set 4, counter-screen for MITF inhibitor project, dose response (AID 624364); assay type: functional; settings: A-375;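 note: A375 melanoma cells are MITF independent so this is a counter screen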
[16] = viability loss in MITF-independent A375 cells – cell-based, CellTiter-Glo luminescence, dry powder, set 2, counter-screen for MITF inhibitor project, dose response (AID 624489); assay type: functional; settings: A-375;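 note: actives are compounds lowering A375 viability meaning general cytotoxicity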
[17] = biological target: Protein disulfide-isomerase A6 (Homo sapiens, UniProt Q15084); assay: Secondary Assay for Selectivity of PDI Inhibitors (against ERp5) Measured in Biochemical System Using Plate Reader - 2137-04_Inhibitor_Dose_DryPowder_Activity_Set3.
[18] = loss of viability in HeLa cells – cell-based, ATP luminescence, dry powder, cytotoxicity control, dose response (AID 652117); assay type: functional
[19] = biological target: Protein disulfide-isomerase (Homo sapiens, UniProt P07237); assay: inhibition of PDI-mediated insulin reduction – biochemical, turbidity, dry powder samples, set 2, confirmation (AID 652146)
[20] = kidney cell line viability loss – HEK293T, luminescence plate reader, powder samples, set 4, cytotoxicity control, dose response (AID 651863); assay type: functional, cell-based; settings: HEK293
[21] = biological target: Delta-type opioid receptor (Homo sapiens, UniProt P41143); assay: Late-stage results from the probe development effort to identify antagonists of OPRK1: fluorescence-based cell-based dose response OPRD1 counterscreen.; assay type: functional
Mu-type opioid receptor = Mu-type opioid receptor (Homo sapiens, UniProt P35372); assay: Late-stage results from the probe development effort to identify antagonists of OPRK1: luminescence-based cell-based dose response OPRM1 counterscreen.; assay type: functional
Chain of Mu-type opioid receptor (P35372 whole entry): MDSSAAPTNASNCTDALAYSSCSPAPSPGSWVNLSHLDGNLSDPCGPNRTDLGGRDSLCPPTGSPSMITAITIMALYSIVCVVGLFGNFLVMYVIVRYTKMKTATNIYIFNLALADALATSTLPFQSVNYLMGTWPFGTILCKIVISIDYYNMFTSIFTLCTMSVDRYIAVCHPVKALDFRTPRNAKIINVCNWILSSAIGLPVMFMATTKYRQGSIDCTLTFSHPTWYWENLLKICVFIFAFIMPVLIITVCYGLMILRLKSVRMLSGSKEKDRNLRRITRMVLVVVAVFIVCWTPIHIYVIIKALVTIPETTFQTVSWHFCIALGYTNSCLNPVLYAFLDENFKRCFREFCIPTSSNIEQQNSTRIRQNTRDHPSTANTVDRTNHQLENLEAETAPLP

T1 sequence (Q96RJ0 whole entry): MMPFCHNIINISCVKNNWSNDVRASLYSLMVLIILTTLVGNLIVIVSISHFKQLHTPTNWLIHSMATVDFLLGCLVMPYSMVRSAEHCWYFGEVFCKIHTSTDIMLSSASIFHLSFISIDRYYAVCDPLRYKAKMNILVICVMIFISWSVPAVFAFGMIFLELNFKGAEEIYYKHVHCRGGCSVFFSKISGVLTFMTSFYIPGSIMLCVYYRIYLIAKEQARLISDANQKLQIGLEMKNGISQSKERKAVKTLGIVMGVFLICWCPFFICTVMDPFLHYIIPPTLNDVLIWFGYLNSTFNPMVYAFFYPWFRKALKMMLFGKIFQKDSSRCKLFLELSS
Chain of Disintegrin and metalloproteinase domain-containing protein 17 (P78536 whole entry, the tested form may be a part): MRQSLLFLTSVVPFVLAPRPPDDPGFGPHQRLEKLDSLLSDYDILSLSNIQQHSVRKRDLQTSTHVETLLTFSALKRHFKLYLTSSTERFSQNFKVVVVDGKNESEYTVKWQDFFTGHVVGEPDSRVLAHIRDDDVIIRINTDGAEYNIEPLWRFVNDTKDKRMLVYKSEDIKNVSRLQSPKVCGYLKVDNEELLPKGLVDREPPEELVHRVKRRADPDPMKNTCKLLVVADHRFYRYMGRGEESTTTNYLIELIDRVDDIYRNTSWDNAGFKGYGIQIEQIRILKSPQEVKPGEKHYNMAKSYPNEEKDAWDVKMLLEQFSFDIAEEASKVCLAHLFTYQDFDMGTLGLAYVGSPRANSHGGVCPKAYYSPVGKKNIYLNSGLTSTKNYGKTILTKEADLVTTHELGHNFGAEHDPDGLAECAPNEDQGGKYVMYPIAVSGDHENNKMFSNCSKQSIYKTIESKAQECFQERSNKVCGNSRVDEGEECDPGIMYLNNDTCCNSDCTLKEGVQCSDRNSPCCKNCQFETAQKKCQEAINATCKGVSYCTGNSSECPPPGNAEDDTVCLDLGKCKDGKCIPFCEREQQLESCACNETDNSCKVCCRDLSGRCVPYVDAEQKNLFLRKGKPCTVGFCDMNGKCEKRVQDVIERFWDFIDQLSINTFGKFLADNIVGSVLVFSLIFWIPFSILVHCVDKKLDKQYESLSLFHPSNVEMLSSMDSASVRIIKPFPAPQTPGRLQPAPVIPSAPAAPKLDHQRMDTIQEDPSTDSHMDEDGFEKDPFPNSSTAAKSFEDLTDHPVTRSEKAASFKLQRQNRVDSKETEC
Chain of Protein disulfide-isomerase (P07237 whole entry): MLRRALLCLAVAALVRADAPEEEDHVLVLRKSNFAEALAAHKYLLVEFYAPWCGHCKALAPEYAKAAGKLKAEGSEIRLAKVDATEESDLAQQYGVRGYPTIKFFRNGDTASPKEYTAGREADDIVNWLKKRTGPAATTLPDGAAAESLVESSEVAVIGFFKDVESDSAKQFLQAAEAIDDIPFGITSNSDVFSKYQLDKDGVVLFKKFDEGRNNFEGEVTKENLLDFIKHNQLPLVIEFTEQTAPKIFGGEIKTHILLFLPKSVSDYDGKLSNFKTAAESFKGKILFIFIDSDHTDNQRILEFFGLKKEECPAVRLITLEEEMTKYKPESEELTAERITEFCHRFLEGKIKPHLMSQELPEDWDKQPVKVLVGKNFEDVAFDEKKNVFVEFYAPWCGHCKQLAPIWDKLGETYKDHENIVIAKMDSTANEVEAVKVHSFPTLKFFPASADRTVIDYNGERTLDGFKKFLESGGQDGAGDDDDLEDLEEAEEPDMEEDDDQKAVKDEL
Chain of Albumin (P02769 whole entry): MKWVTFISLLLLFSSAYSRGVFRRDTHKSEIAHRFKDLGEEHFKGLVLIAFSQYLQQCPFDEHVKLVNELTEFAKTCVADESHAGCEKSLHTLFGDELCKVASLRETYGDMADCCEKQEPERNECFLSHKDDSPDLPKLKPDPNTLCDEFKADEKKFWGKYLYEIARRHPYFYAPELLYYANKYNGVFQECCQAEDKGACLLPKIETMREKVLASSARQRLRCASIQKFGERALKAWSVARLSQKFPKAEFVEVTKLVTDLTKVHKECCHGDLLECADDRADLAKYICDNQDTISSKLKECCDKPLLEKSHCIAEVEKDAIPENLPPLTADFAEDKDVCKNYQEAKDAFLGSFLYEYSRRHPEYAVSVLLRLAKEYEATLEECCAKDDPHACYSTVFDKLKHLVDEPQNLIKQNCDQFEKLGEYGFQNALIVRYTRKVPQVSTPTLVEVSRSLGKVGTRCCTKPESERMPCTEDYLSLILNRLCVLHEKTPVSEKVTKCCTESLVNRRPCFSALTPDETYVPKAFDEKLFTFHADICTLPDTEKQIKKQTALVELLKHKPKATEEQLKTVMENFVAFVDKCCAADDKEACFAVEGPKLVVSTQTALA
Chain of Delta-type opioid receptor (P41143 whole entry): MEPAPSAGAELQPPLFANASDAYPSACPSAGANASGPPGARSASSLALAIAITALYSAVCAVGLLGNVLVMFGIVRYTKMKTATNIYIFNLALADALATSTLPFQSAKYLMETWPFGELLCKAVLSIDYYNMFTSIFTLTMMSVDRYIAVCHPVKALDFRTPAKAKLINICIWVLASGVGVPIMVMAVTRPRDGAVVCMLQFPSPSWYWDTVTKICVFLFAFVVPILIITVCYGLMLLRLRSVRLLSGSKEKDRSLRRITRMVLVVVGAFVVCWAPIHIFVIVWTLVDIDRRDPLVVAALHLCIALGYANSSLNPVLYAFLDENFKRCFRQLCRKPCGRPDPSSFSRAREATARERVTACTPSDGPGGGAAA
Chain of Metabotropic glutamate receptor 3 (P31422 whole entry): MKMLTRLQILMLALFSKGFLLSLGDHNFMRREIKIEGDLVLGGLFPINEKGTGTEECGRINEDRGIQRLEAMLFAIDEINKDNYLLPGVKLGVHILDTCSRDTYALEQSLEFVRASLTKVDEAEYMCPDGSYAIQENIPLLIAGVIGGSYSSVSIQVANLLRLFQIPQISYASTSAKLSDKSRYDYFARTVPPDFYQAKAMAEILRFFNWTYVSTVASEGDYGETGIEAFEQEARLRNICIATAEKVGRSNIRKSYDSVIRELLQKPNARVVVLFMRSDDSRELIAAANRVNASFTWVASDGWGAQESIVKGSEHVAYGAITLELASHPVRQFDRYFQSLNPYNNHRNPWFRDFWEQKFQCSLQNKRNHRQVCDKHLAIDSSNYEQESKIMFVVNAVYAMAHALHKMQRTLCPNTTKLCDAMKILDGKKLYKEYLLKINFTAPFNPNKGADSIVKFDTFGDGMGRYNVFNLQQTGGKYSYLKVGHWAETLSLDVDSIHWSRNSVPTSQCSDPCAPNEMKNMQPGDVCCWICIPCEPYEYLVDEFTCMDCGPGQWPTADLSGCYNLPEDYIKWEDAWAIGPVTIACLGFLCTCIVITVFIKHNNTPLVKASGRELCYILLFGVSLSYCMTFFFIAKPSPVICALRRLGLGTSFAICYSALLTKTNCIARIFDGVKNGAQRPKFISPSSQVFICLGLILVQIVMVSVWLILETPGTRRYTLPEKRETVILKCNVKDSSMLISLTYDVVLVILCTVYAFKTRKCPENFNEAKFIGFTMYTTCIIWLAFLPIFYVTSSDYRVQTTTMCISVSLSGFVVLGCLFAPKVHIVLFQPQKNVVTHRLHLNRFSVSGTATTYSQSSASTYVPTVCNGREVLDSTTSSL
Chain of Protein disulfide-isomerase A6 (Q15084 whole entry): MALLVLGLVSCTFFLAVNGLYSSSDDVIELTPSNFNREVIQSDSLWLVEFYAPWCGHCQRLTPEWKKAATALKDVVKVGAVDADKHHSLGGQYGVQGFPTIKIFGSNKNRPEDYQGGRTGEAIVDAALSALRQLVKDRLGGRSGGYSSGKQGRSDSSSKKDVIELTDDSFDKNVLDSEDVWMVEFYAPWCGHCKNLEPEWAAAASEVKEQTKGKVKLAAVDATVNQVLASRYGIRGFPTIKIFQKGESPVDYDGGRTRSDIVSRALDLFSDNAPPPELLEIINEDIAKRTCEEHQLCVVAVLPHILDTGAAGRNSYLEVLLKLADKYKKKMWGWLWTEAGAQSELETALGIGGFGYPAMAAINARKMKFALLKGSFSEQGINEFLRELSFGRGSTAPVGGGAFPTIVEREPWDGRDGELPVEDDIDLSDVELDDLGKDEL

O=C(CN1CCCC1)Nc1ccc(Oc2ccc(NC(=O)CN3CCCC3)cc2)cc1
AC50 [1]: > 52 µM (inactive)

O=C(CSC1=Nc2ccc(F)cc2S(=O)(=O)N1)NCCc1ccccc1
IC50 (cells [2]): > 29.9 µM (inactive)
EC50 [3]: 0.621 µM (active)
IC50 [4]: 3.52 µM (active)
EC50 (cells [5]): > 29.9 µM (inactive)

CN=C(S)NNC(=O)c1cccn(Cc2cccc(C(F)(F)F)c2)c1=O
IC50 (Albumin): > 94.1 µM (inactive)

O=C1NCN(c2ccccc2)C12CCN(C(c1cccc3ccccc13)c1nnnn1Cc1ccccc1)CC2 (stereo unspecified)
IC50 [6]: > 69.5 µM (inactive)
IC50 [7]: > 69.5 µM (inactive)

CC/C(C)=N\Nc1nc(-c2cc3cc(OC)ccc3oc2=O)cs1
AC50 [8]: > 52 µM (inactive)
AC50 (cells [9]): > 52 µM (inactive)

CCCCN(C(C)=O)c1ccc2c(c1)C1CC2CCN1Cc1ccccc1 (stereo unspecified)
AC50 (Vero): 30.5 µM (active)
AC50 (BHK-21): 33.7 µM (active)
AC50 (A549): 30.3 µM (active)

COc1ccc(C#Cc2ccc(C(=O)N3CC[C@@H](O)C3)cc2)cc1
IC50 [10]: 6.34 µM (active)

c1ccc(-c2nnc(SCc3ccccn3)o2)cc1
IC90 [11]: 4 µM (active)
IC90 [12]: 4 µM (active)
IC90 [13]: 16 µM (active)

O=C(Cc1ccc(-c2ccccc2)cc1)NC1CCCCC1
AC50 [14]: 109 µM (active)

O=C1C(NS(=O)(=O)c2ccc(Br)cc2)=C(c2ccc(OC(F)(F)F)cc2)C(=O)c2ccccc21
AC50 [15]: > 70 µM (inactive)
AC50 [16]: > 70 µM (inactive)

CC(C)(C)OC(=O)C1(CCOc2ccccc2)CCN(Cc2ccc(O)c(Cl)c2)CC1
AC50 [17]: 30 µM (inactive)
AC50 [18]: 34 µM (active)
AC50 [19]: 0.6 µM (active)

O=C(O)C1CCCCC1C(=O)N1CCc2ccccc2C1CN1C(=O)[C@H]2CCCC[C@H]2C1=O (stereo partly specified)
AC50 [20]: > 52 µM (inactive)

COC(=O)c1cc(Cl)cnc1N1CCC(NC2CCCCC2)CC1
IC50 [21]: 39 µM (inactive)
IC50 (Mu-type opioid receptor): 2 µM (active)
